# The NIST ThermoML archive (doi:10.1016/j.fluid.2005.11.014)
# Values joined by “and” are separate entries in the source; they are usually repeats but may differ in a detail not shown here. Equal values may be shown once. Numbers after ± are expanded uncertainties.
# Conditions: 313.15 K; Liquid; Closed cell (Static) method
row,vapor or sublimation pressure,SMILES
1,24.39 ± 0.097 kPa and 24.37 ± 0.097 kPa,c1ccccc1 [benzene]
2,7.003 ± 0.038 kPa and 7 ± 0.038 kPa,CCCO [propan-1-ol]

row,SMILES,vapor or sublimation pressure
1,CC(C)OC(C)C [diisopropyl ether],37.1 ± 0.15 kPa and 37.11 ± 0.15 kPa and 37.12 ± 0.15 kPa
